These results are taken from patent publication US20060094676A1, “Compositions and methods for treating cancer using compositions comprising an inhibitor of endothelin receptor activity” (priority 2004, published 2006).

One series deals with VEGF. Put plainly: Real-time RT-PCR of VEGF transcripts. Format: cell-based, human. The note with it: BQ788 3 days. The procedure: (§1) Equal amounts of RNA from cells that were treated with BQ788 for 3 days were subjected to real-time RT-PCR analysis for the detection VEGF (A), HIF-1α (B) and Gravin (C) transcripts. Differences in expression levels are shown as x fold change and are statistically significant (p<0.05) unless a column in marked as non significant (N.S.). Sections of two representative tumors derived from a human melanoma cell line grown in nude mice and injected either with vehicle (D) or BQ788 (E) were stained with anti CD-31 to highlight blood vessels (brown staining, Lahav et al, 1999).
RNA was prepared from the different cell lines in different culture conditions using SV total RNA isolation kit (Promega) according to the manufacturer's protocol. For each sample RNA concentration was determined using the total RNA nano procedure of an Agilent bioanalyzer. A stock of SK-MEL-28 RNA aliquots was prepared containing 10, 20, 50, 100, 200, 500 and 1000 ng/12 μl for use as a standard curve and kept in −80° C. For the experimental unknown samples, a stock of 100 ng/12 μl RNA aliquots from each cell line and condition was prepared and stored at −80° C. For each real-time experiment one series of standard curve and unknown experimental series of aliquots was put on ice for use. Complementary DNA was prepared by adding to each tube 0.5 μl of random hexamers (Promega) and 1 μl of 10 mM dNTP mix (Promega) and incubating at 65° C. for 5 min. 4 μl of 5× M-MLV buffer (Promega), 1 μl of the RNase inhibitor RNasin (Promega) and 1 μl of M-MLV RT RNase H (Promega) were then added and the solution was incubated at 42° C. for 50 min followed by 15 min at 70° C. For real time reactions 15 μl of each cDNA sample were transferred to 3 wells in a 386 well plate. To each well we added 10 μl of TaqMan universal PCR master mix (Applied Biosystems), 1 μl of primers+probe mix (Assays-on-Demand from Applied Biosystems: EDNRB Hs00240747, BCL-2A1 Hs00187845, PARP-3 Hs00154151, VEGF Hs00173626, HIF-1α Hs00153153 and Gravin Hs00374507) and 4 μl of nuclease free water (Promega). Wells containing water instead of cDNA served as negative controls. The samples were subjected to 40 cycles of 15 sec at 95° C. and 1 min at 60° C. A standard curve of Ct versus RNA quantity was established and accordingly the Ct in the unknown samples was correlated to quantity of transcript.
Real-time PCR analysis confirmed that VEGF expression levels increased 18-fold in BQ788 treated LN-met cells and 65-fold in SK-MEL-28 cells, compared to only 2-fold in primary melanoma, and no change in the Cut-met line (FIG. 5). The changes in VEGF expression levels can be explained, at least in part, by changes in the expression levels of its known regulator hypoxia inducible factor-1 oc (HIF-1α) (Maxwell, et al., Oxygen sensors and angiogenesis, Semin. Cell Dev. Biol., 13:29-37 (2002)). […]
(In qPCR the cycle at which signal appears reflects the starting amount.)

The conditions of series [1]: hypertension patients and healthy volunteers; cited from earlier work.
For series [2], the system named is tumors derived from a human melanoma cell line grown in nude mice. As to the kind of experiment: Anti-CD31 immunohistochemistry of tumor sections (angiogenesis). Format: in vivo. The note with it: tumors injected with BQ788 vs vehicle. The method, then:
as §1
The relationship between the expression patterns of VEGF and GRAVIN is consistent with that observed in astrocytes, where GRAVIN down-regulates VEGF expression (Lee, et al., SSeCKS regulates angiogenesis and tight junction formation in blood-brain barrier, Nat. Med., 9:900-906 (2003)). In the present study we observed, at least for the most sensitive cell lines, LN-met and SK-MEL-28, that down-regulation of GRAVIN correlates with induction of VEGF. We therefore analyzed tissue sections of tumors derived from a human melanoma cell line grown in nude mice and injected with BQ788 for signs of changes in angiogenesis (Lahav, et al., An endothelin receptor B antagonist inhibits growth and induces cell death in human melanoma cells in vitro and in vivo, Proc. Natl. Acad. Sci. U.S.A., 96:11496-11500 (1999)).

Turning to `CCCC[C@@H](NC(=O)[C@@H](Cc1cn(C(=O)OC)c2ccccc12)NC(=O)[C@H](CC(C)(C)C)NC(=O)N1[C@H](C)CCC[C@@H]1C)C(=O)O` [BQ788, N-cis-2,6-dimethylpiperidinocarbonyl-L-γ-methylleucyl-D-1-methoxycarbonyltrptophanyl-D-norleucine], in the series on VEGF (Cut-met line), the “VEGF expression level change” value is given as “no change”. Also, the “increase in VEGF expression levels” value is recorded as 18 fold with VEGF (LN-met cells), 65 fold in the series on VEGF (SK-MEL-28 cells) and 2 fold with VEGF (primary melanoma). In series [1], the “toxicity in clinical trials” value was “not found to be toxic”. For the same compound, in series [2], the “angiogenesis in tumors (anti-CD31 staining)” value is recorded as “clear increase in angiogenesis”.
